IC50, Kd and Ki data for eleven molecules are collected here from ChEMBL document CHEMBL6096693, “Fragment-to-Lead Medicinal Chemistry Publications in 2023” (J Med Chem, 2025).

Assay [1] concerns the target Epidermal growth factor receptor (Homo sapiens, UniProt P00533). In words: Inhibition of EGFR (unknown origin).
A short description of assay [2]: Binding affinity to Interleukin-1beta (unknown origin) assessed as dissociation constant by SPR analysis. Also noted: species or system Homo sapiens. In general terms: In SPR one partner is held on a chip, and binding of the other changes the refractive index at the surface.
In assay [3] the target is Bifunctional dihydrofolate reductase-thymidylate synthase (Plasmodium falciparum K1, UniProt P13922). Nature of the assay: Binding affinity to Plasmodium falciparum DHFR assessed as inhibition constant.
Bifunctional dihydrofolate reductase-thymidylate synthase, sequence (P13922 whole entry): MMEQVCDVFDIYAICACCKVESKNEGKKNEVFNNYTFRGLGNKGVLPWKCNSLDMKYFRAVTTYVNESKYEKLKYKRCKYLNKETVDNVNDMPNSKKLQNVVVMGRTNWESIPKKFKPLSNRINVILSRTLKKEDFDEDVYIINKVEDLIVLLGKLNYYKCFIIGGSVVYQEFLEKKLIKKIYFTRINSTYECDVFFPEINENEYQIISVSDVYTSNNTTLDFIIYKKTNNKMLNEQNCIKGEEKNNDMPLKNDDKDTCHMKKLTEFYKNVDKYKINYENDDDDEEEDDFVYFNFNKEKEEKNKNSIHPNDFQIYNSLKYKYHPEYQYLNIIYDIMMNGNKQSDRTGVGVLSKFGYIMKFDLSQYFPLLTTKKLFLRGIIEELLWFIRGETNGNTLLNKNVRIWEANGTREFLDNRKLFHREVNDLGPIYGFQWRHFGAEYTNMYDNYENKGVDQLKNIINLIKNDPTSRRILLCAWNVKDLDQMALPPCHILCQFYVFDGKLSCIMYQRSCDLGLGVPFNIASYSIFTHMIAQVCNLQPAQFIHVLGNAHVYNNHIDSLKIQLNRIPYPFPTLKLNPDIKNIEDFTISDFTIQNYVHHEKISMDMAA
The target in assay [4] is Bromodomain-containing protein 4 (Homo sapiens, UniProt O60885). Nature of the assay: Inhibition of BRD4 BD1 (unknown origin) using biotinylated tetra-acetylated H4 peptide SGRG-K(Ac)-GG-K(Ac)-GLG-K(Ac)-GGA-K(Ac)-RHRK-Biotin as substrate incubated for 60 mins by TR-FRET analysis. On the technique in general: Time-resolved FRET reads energy transfer from a long-lived donor to a nearby acceptor.

The target in the next assay is T1, Coagulation factor XII (Homo sapiens, UniProt P00748).
T1 sequence (P00748 whole entry): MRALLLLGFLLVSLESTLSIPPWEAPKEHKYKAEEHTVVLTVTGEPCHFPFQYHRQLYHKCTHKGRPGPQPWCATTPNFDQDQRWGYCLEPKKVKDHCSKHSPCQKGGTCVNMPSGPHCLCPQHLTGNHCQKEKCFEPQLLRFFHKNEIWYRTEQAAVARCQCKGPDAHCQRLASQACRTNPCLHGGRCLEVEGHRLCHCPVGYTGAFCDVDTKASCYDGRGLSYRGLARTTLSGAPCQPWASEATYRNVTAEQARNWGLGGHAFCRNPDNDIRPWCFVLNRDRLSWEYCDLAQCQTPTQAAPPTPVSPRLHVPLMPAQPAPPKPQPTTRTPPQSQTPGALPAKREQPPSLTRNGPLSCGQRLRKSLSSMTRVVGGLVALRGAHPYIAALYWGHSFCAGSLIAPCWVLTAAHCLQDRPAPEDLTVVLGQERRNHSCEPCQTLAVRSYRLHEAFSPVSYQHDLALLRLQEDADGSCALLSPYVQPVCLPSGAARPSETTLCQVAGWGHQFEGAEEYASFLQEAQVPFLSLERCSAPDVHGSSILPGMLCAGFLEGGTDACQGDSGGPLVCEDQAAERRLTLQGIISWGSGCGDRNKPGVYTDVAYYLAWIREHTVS
Nature of the assay: Inhibition of human FXIIa (unknown origin).

A short description of assay [5]: Inhibition of SARS-CoV2 Mac1 extracted from Escherichia coli Rosetta2 (DE3). Also noted: species or system Severe acute respiratory syndrome coronavirus 2.
Assay [6] addresses T2, ATPase family AAA domain-containing protein 2 (Homo sapiens, UniProt Q6PL18).
T2 sequence (Q6PL18 whole entry): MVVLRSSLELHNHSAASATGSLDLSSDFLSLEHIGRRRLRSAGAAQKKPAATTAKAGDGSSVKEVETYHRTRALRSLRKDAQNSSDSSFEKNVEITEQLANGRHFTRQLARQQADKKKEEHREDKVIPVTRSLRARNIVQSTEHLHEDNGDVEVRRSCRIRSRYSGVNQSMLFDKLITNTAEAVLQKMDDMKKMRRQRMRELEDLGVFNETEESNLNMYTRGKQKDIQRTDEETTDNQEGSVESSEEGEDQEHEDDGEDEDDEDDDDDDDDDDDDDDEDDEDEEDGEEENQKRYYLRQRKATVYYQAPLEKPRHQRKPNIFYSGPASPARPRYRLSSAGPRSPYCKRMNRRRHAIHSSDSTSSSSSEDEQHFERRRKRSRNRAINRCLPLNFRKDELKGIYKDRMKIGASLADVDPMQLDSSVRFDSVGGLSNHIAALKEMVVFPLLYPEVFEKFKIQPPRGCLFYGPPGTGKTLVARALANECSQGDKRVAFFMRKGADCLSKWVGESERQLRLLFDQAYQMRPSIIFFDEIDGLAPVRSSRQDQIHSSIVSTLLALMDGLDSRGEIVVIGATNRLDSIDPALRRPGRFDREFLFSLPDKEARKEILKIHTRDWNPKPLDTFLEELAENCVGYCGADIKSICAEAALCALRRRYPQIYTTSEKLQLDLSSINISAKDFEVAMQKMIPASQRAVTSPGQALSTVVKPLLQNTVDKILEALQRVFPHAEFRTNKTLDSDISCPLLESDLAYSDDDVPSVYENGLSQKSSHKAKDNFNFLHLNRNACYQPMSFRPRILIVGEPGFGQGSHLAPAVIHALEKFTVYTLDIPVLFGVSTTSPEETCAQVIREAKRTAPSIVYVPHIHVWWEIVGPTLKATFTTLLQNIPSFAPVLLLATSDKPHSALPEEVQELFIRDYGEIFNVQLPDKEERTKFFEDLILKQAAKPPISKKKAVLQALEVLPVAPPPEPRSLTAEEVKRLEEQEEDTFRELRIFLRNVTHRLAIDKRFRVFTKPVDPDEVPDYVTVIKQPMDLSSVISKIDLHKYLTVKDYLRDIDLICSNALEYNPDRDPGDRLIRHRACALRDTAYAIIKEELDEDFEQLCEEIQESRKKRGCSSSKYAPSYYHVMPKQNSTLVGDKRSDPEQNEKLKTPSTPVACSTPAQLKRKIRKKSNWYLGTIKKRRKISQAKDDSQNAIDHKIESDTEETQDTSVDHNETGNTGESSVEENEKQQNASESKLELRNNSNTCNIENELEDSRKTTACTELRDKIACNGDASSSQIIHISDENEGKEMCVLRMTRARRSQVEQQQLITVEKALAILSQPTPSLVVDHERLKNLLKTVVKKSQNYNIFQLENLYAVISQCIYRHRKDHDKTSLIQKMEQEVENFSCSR
Nature of the assay: Inhibition of recombinant ATAD2 bromodomain (unknown origin) by TR-FRET assay.

Epidermal growth factor receptor, sequence (P00533 whole entry): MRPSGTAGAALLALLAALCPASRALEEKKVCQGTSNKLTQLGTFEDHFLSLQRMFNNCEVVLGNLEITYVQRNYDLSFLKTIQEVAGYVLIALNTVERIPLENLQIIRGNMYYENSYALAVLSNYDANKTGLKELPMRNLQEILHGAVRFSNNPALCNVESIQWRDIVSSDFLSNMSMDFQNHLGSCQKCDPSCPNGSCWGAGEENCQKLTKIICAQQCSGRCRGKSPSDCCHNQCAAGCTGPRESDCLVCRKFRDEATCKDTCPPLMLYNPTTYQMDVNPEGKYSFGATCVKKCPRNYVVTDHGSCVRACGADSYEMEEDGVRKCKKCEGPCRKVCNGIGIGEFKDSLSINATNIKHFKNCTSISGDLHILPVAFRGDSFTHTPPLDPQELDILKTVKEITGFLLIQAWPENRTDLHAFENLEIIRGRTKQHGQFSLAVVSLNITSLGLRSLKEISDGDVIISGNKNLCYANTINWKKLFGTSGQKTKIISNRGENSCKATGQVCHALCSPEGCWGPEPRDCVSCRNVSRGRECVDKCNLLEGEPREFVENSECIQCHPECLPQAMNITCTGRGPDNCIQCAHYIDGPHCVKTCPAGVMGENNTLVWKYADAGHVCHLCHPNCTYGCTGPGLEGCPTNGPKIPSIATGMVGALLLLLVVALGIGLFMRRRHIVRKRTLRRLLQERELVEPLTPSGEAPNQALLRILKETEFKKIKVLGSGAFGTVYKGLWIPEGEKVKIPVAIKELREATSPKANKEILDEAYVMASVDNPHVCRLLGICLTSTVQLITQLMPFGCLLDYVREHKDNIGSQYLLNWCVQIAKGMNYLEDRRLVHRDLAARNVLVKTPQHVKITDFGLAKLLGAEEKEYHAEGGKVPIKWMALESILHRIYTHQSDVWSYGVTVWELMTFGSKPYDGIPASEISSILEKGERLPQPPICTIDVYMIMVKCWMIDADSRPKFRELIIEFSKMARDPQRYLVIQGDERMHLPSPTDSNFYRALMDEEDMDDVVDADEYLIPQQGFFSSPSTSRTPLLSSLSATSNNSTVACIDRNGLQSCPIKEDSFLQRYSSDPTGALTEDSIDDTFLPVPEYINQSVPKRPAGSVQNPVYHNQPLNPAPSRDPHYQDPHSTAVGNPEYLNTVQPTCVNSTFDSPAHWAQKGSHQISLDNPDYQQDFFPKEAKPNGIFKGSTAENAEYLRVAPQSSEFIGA

Consider `C=CC(=O)Nc1ccccn1`, for which, in assay [1], the half-inhibitory concentration (IC50) was over 500 µM.
On to `O=C1Nc2cc(C(F)(F)F)ccc2C1(O)c1cc(Cl)ccc1O` (configuration not stated), for which, in assay [2], the equilibrium dissociation constant (Kd) stood at 520 µM.
Regarding `O=C(O)c1cccc(-c2ccncc2)c1`, the Ki in assay [3] is over 500 µM.
In turn, `O=C(O)c1cc(-c2c[nH]c3ccccc23)on1` had an IC50 in assay [4] of 97 µM.
`C=CC(=O)Nc1cc(-c2cn(C)c3ccccc23)ncn1` showed an IC50 in assay [1] of 0.9 µM.
As to `Cc1ccc2c(c1)NC(=O)[C@@]2(c1cn[nH]c1)c1cc(-c2ccc(C(=O)O)cc2C(=O)O)ccc1O`, the equilibrium dissociation constant (Kd) in assay [2] stood at 1.1 µM.
In turn, `Cn1cc(-c2onc(C(=O)O)c2CO)c2ccccc21` registered an IC50 in assay [4] of 0.91 µM.
For `O=C(Nc1ccc(C(=O)N[C@H]2c3cccc(O)c3C[C@H]2C(=O)O)cc1)NC1CC1`, the half-maximal inhibitory concentration (IC50) on Coagulation factor XII is 390 µM; in assay [5], over 180 µM.
As for `Cc1cc(C)on1`, it took 84 µM to reach half-maximal inhibition in assay [4] (IC50).
Consider `CCNC(=O)[C@H](C)NC(=O)Cn1cc(-c2c(C)noc2C)cn1`, for which inhibition in assay [4] was half-maximal at 0.05 µM (IC50).
`Cn1c(=O)c2[nH]cnc2n(C)c1=O` [THEOPHYLLINE ANHYDROUS]: the IC50 in assay [6] came out at 320 µM.

What is called IC50 is the concentration at which inhibition is half-maximal. A word on the Kd: it is the free concentration of one partner at which half of the binding sites on the other are occupied at equilibrium, for simple one-to-one binding. The term Ki denotes a measure of affinity in units of concentration, obtained from inhibition or displacement.
